Tests used:
Format in all cases: ADME, organism-based
[1] = Half life in rat at 5 mg/kg, iv; set-up: dose 5 mg/kg, route intravenous; conditions: in vivo
[2] = AUC in rat at 20 mg/kg, po; set-up: dose 20 mg/kg, route oral; conditions: plasma
[3] = Clearance in rat at 5 mg/kg, iv and 20 mg/kg, po; conditions: in vivo
[4] = Volume of distribution at steady state in rat at 5 mg/kg, iv and 20 mg/kg, po; conditions: in vivo, read-out: Vdss
[5] = Oral bioavailability in rat at 20 mg/kg; conditions: in vivo
[6] = Volume of distribution at steady state in mouse at 5 mg/kg, iv and 10 mg/kg, po; conditions: in vivo, read-out: Vdss
[7] = Clearance in mouse at 5 mg/kg, iv and 10 mg/kg, po; conditions: in vivo
[8] = Half life in mouse at 10 mg/kg, po; set-up: dose 10 mg/kg, route oral; conditions: in vivo
[9] = Oral bioavailability in mouse at 10 mg/kg; conditions: in vivo
[10] = AUC in mouse at 10 mg/kg, po; set-up: dose 10 mg/kg, route oral; conditions: plasma

Row | half-life [1] [min] | AUC [2] [µM·h] | clearance [3] [mL/min/kg] | Vd [4] [L/kg] | bioavailability [5] [%] | Vd [6] [L/kg] | clearance [7] [mL/min/kg] | half-life [8] [min] | bioavailability [9] [%] | AUC [10] [µM·h] | SMILES
1 | 30 | 0.03 | 179 | 6.9 | 1 | – | – | – | – | – | Oc1cccc(-c2cc(Nc3cnc4ccccc4c3)nc(N3CCOCC3)n2)c1
2 | 55 | 16 | 26 | 2.4 | 46 | – | – | – | – | – | c1cncc(-c2cc(Nc3cnc4ccccc4c3)nc(N3CCOCC3)n2)c1

The next lines start with the compound.

Row | SMILES | half-life [1] [min] | AUC [2] [µM·h] | clearance [3] [mL/min/kg] | Vd [4] [L/kg] | bioavailability [5] [%] | Vd [6] [L/kg] | clearance [7] [mL/min/kg] | half-life [8] [min] | bioavailability [9] [%] | AUC [10] [µM·h]
3 | Nc1ccc(-c2cc(Nc3cnc4ccccc4c3)nc(N3CCOCC3)n2)cn1 | 103 | 93 | 5 | 0.8 | 56 | – | – | – | – | –
4 | Nc1ncc(-c2cc(Nc3cnc4ccccc4c3)nc(N3CCOCC3)n2)cn1 | 43 | 6 | 37 | 1.9 | 23 | – | – | – | – | –
5 | COc1ccc(Nc2cc(-c3cnc(N)nc3)nc(N3CCOCC3)n2)cn1 | – | – | – | – | – | 1.1 | 99 | 282 | 87 | 2

Source: ChEMBL document CHEMBL1671825, “Synthesis and in Vitro and in Vivo Evaluation of Phosphoinositide-3-kinase Inhibitors” (ACS Med Chem Lett, 2011)
